Eleven compounds from patent publication US11584744B2 (UNIVERSITY OF WASHINGTON, priority 2017, dated 2023) can be followed below.

As usually defined, the IC50 is the concentration at which inhibition is half-maximal. For orientation: MIC means the lowest concentration found to suppress growth. In general, EC50 refers to the concentration at which the effect is half-maximal.

Test [1] has as its target recombinant S. aureus MetRS enzyme (Staphylococcus aureus, UniProt A0A0H2XID2). Briefly: Inhibition of SaMetRS, ATP depletion assay. The class given is biochemical. To be noted: read-out: (B) MetRS (S. aureus) IC50. The protocol:
Production of recombinant S. aureus MetRSs. The SaMetRS gene (UniProtKB—A0A0H2XID2) was PCR amplified (Sense 5′-[…]-3′ (SEQ ID NO: 1) and Antisense 5′-[…]-3′ (SEQ ID NO:2)) from genomic DNA isolated from S. aureus (ATCC 29213) cultures. The PCR product was then cloned into the AVA0421 plasmid and sequence verified. The expression of recombinant protein was performed as previously described. The N-terminal 6-His fusion proteins were purified by nickel affinity chromatography followed by size exclusion gel chromatography (Superdex 75 26/60; GE Biosciences, Piscataway, N.J.).
Enzyme assays. Inhibition of SaMetRS was measured using the ATP depletion assay as previously described with some modifications. Compounds were pre-incubated for 15 minutes at room temperature in a 96-well plate with 400 μg/mL bulk E. coli tRNA, 25 nM SaMetRS, 0.1 U/mL pyrophosphatase, 0.2 mM spermine, 0.1 mg/mL bovine serum albumin, 2.5 mM dithiothreitol, 25 mM HEPES-KOH pH 7.9, 10 mM MgCl2, 50 mM KCl, and 2% DMSO. Reagents were purchased from Sigma-Aldrich or Roche. The reaction was started with the addition of 150 nM ATP and 20 μM L-methionine and after 120 minute incubation was stopped by the addition of an equal volume (50 μL) of Kinase-Glo® (Promega). Percent inhibition=100×(test compound−AVG low control)/(AVG high control−AVG low control) where the low control is all reagents except the compound and the high control is all reagents except the compounds and L-methionine. IC50 values were calculated by non-linear regression, sigmoidal-dose response, in Prism 3.0.

For test [2], the system named is S. aureus MRSA (ATCC 33591). Briefly: MIC susceptibility testing. To be noted: Staphylococcus aureus, MRSA ATCC33591; read-out: (G) MRSA (ATCC33591) MIC. It is filed as cell-based, Staphylococcus aureus. Put shortly:
(§1)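 CLSI broth microdilution in triplicate, 5×10^5 CFU/mL final, ≤0.5% DMSO; MHB for S. aureus, CA-MHB for E. coli and E. faecium, CA-MHB plus 3% laked horse blood for S. pyogenes (5% CO2).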

Test [3] deals with S. aureus MSSA (ATCC 29213). Briefly: MIC susceptibility testing. It is filed as cell-based, Staphylococcus aureus. The note with it: S. aureus ATCC 29213; for MIC: Staphylococcus aureus, read-out: (F) S. aureus (ATCC 29213) MIC.
The next test concerns the target T1, MetRS (T. brucei) (Trypanosoma brucei brucei, UniProt Q38C91).
T1 sequence (Q38C91 1-773): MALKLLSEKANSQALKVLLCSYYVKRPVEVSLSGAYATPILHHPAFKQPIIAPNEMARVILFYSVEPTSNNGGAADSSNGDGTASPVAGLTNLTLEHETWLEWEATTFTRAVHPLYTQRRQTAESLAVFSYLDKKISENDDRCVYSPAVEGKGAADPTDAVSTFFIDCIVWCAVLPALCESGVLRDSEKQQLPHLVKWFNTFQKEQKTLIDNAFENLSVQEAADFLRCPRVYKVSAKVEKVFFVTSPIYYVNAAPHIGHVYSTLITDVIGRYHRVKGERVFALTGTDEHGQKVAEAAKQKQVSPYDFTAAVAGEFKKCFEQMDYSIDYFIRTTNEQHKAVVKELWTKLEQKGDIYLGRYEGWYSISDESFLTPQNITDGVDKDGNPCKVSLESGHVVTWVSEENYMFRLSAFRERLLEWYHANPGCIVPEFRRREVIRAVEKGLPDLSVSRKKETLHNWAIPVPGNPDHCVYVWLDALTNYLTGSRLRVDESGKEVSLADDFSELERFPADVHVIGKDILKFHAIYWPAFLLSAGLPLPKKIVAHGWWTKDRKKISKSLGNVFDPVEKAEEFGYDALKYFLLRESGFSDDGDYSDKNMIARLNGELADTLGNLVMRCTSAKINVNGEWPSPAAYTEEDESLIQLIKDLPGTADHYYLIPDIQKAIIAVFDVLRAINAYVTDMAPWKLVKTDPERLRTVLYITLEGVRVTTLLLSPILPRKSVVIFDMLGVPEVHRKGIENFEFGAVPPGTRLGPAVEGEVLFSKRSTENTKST
Put plainly: MetRS (T. brucei) enzyme inhibition. It is filed as biochemical.

The target in another test is MetRS (C. parvum) (Cryptosporidium parvum, UniProt Q5CVN0). Briefly: MetRS (C. parvum) enzyme inhibition. It is filed as biochemical. The note with it: read-out: (C) MetRS (C. parvum) IC50.
Chain of MetRS (C. parvum) (Q5CVN0 entry or part of it): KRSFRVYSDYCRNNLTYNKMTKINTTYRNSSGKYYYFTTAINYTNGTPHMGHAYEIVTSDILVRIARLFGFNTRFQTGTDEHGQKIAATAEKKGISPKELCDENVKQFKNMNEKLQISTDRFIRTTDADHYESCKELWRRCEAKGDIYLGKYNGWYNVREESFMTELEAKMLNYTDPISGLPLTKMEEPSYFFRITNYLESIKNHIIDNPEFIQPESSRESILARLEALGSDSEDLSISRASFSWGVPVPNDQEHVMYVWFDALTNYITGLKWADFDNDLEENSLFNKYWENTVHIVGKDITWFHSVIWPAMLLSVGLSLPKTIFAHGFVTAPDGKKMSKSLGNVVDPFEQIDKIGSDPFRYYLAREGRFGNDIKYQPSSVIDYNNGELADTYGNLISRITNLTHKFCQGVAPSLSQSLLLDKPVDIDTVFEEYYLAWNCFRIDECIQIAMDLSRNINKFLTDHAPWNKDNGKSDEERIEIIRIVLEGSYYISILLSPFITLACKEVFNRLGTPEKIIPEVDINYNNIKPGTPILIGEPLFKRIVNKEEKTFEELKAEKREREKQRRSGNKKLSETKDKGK
A further test relates to T. cruzi. Put plainly: T. cruzi growth inhibition. It is filed as cell-based, Trypanosoma cruzi. To be noted: read-out: (E) T. cruzi EC50.
Another test concerns C. parvum. Put plainly: C. parvum growth inhibition. The class given is cell-based, Cryptosporidium parvum. To be noted: read-out: (J) C. parvum EC50.
A further test has as its system T. brucei. Briefly: T. brucei growth inhibition. To be noted: read-out: (D) T. brucei EC50. The class given is cell-based, Trypanosoma brucei.
In test [4] the test system is E. faecium VRE (ATCC 51559). Put plainly: MIC susceptibility testing. The class given is cell-based, Enterococcus faecium. To be noted: Enterococcus faecium, E. faecium ATCC 51559; read-out: (I) E. faecium (ATCC 51559) MIC. Put shortly: as §1

Values after ≈ are worked out from the molar mass of the structure shown. Read-outs that look alike come from different tables or passages of the source.

Chain of recombinant S. aureus MetRS enzyme (A0A0H2XID2 2-657): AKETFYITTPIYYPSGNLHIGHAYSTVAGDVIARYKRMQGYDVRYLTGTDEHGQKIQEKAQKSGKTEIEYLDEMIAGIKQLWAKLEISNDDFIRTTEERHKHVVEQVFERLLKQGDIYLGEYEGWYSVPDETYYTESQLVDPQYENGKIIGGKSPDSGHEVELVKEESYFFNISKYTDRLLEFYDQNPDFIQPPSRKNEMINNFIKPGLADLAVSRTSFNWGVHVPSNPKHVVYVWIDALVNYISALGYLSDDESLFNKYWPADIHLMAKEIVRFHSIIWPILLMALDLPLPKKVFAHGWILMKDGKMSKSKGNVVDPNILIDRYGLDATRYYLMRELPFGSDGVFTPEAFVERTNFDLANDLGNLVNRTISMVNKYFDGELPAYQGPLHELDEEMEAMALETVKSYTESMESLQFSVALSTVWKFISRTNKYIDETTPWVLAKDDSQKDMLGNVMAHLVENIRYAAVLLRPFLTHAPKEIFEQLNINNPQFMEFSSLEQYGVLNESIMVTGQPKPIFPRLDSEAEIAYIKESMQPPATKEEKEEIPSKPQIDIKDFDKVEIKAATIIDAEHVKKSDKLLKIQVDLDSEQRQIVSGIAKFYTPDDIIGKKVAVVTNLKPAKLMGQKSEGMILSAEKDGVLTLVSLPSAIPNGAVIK

In the case of `COCCn1c(Cc2ccc(Cl)cc2Cl)cn(Cc2nc3ccc(F)nc3[nH]2)c1=O` [Compound 2077, 4-[(2,4-dichlorophenyl)methyl]-1-({5-fluoro-1H-imidazo[4,5-b]pyridin-2-yl}methyl)-3-(2-methoxyethyl)-2,3-dihydro-1H-imidazol-2-one], the IC50 is under 25 nM in [1], under 40 nM at MetRS (T. brucei) and under 40 nM at MetRS (C. parvum). Besides, the MIC is over 2.5 µg/mL in test [2] and 0.818 µg/mL (≈ 1.82 µM) in [3]. The EC50 in the test on T. cruzi (Trypanosoma cruzi) stood at 215 nM; in the test on C. parvum (Cryptosporidium parvum), 475 nM; with C. parvum, 283 nM.

`CCCn1c(Cc2ccc(Cl)cc2Cl)cn(Cc2nc3ccc(Cl)nc3[nH]2)c1=O` [Compound 2079, 1-({5-chloro-1H-imidazo[4,5-b]pyridin-2-yl}methyl)-4-[(2,4-dichlorophenyl)-methyl]-3-propyl-2,3-dihydro-1H-imidazol-2-one]: the results for the IC50 (in test [1]; on MetRS (T. brucei); on MetRS (C. parvum)) were under 25 nM, under 40 nM and under 40 nM, respectively. Besides, the MIC in test [2] is over 2.5 µg/mL; in [3], 0.044 µg/mL (≈ 0.0976 µM). Besides, the “(F) S. aureus (ATCC 29213) MIC” value in [3] was 0.0391 µg/mL. The EC50 with T. brucei (Trypanosoma brucei) was under 0.91 nM; in the test with T. brucei, 1.79 nM; with T. cruzi (Trypanosoma cruzi) it was 26 nM; in the test on T. cruzi, 22.5 nM.

`O=c1n(Cc2nc3nc(F)ccc3[nH]2)cc(Cc2ccc(Cl)cc2Cl)n1C1CCOCC1` [Compound 2088, 4-[(2,4-dichlorophenyl)methyl]-1-({5-fluoro-1H-imidazo[4,5-b]pyridin-2-yl}methyl)-3-(oxan-4-yl)-2,3-dihydro-1H-imidazol-2-one]: the IC50 in [1] is under 25 nM; on MetRS (T. brucei) it was under 40 nM; at MetRS (C. parvum) it was under 40 nM. Further, the MIC worked out at 1.5 µg/mL (≈ 3.15 µM) in test [2] and 0.424 µg/mL (≈ 0.89 µM) in test [3]. Moreover, the EC50 in the test with T. cruzi (Trypanosoma cruzi) worked out at 263 nM.

As to `CCn1c(Cc2ccc(Cl)cc2Cl)cn(Cc2nc3ccc(Br)nc3[nH]2)c1=O` [Compound 2091, 1-({5-bromo-1H-imidazo[4,5-b]pyridin-2-yl}methyl)-4-[(2,4-dichlorophenyl)-methyl]-3-ethyl-2,3-dihydro-1H-imidazol-2-one], the results for the IC50 (in test [1]; against MetRS (T. brucei); on MetRS (C. parvum)) were under 25 nM, under 40 nM and under 40 nM, respectively. Besides, the MIC in [2] was over 2.5 µg/mL; in test [3] it was 0.199 µg/mL (≈ 0.414 µM). Besides, the EC50 turned out to be 2.8 nM in the test with T. brucei (Trypanosoma brucei), 59 nM with T. cruzi (Trypanosoma cruzi), 40.6 nM in the test with T. cruzi and 598 nM in the test on C. parvum (Cryptosporidium parvum).

As for `COc1cc(-c2cccc3nc(Cc4nc5nc(Cl)ccc5[nH]4)cn23)c(Cl)cc1Cl` [Compound 2128, 2-({5-chloro-1H-imidazo[4,5-b]pyridin-2-yl}methyl)-5-(2,4-dichloro-5-methoxyphenyl)imidazo[1,2-a]pyridine], the IC50 in [1] was under 25 nM; on MetRS (T. brucei) it was under 40 nM; at MetRS (C. parvum), under 40 nM. Also, the MIC in test [4] amounted to 0.24 µg/mL (≈ 0.523 µM). For the same compound, the EC50 with T. brucei (Trypanosoma brucei) worked out at 3.62 nM; in the test on T. brucei, 3.4 nM; in the test on T. cruzi (Trypanosoma cruzi) it was 5.88 nM; in the test on T. cruzi, 10.8 nM; in the test with C. parvum (Cryptosporidium parvum), 1680 nM.

Take `Fc1ccc2[nH]c(Cc3cn4c(-c5ccc(Cl)cc5Cl)cccc4n3)nc2n1` [Compound 2135, 5-(2,4-dichlorophenyl)-2-({5-fluoro-1H-imidazo[4,5-b]pyridin-2-yl}methyl)imidazo[1,2-a]pyridine]: the IC50 is under 25 nM in test [1], under 40 nM on MetRS (T. brucei) and 56.7 nM at MetRS (C. parvum). In addition, the MIC in test [3] came out at 0.592 µg/mL (≈ 1.44 µM); in test [4], 1.33 µg/mL (≈ 3.23 µM). The EC50 with T. brucei (Trypanosoma brucei) came out at 99.3 nM; in the test with T. cruzi (Trypanosoma cruzi), 2160 nM.

In the case of `O=c1n(Cc2nc3nc(F)ccc3[nH]2)cc(Cc2ccc(Cl)cc2Cl)n1CC(F)F` [Compound 2139, 4-[(2,4-dichlorophenyl)methyl]-3-(2,2-difluoroethyl)-1-({5-fluoro-1H-imidazo[4,5-b]pyridin-2-yl}methyl)-2,3-dihydro-1H-imidazol-2-one], the IC50 was under 25 nM in test [1], under 40 nM against MetRS (T. brucei) and under 40 nM on MetRS (C. parvum). The MIC in test [2] amounted to 0.307 µg/mL (≈ 0.673 µM); in [3], 0.0776 µg/mL (≈ 0.17 µM). The EC50 with T. brucei (Trypanosoma brucei) worked out at 3.21 nM; in the test with C. parvum (Cryptosporidium parvum) it was 193 nM.

As for `COc1ccc(-c2cccc3nc(Cc4nc5nc(C(F)(F)F)ccc5[nH]4)cn23)c(Cl)c1` [Compound 2166, 5-(2-chloro-4-methoxyphenyl)-2-{[5-(trifluoromethyl)-1H-imidazo[4,5-b]pyridin-2-yl]methyl}imidazo[1,2-a]pyridine], the IC50 in [1] is 177 nM; against MetRS (T. brucei), under 40 nM; at MetRS (C. parvum), over 1000 nM. In addition, the MIC in [3] was over 1.25 µg/mL; in [4] it was over 2.5 µg/mL. The EC50 is over 200 nM with T. brucei (Trypanosoma brucei) and 596 nM in the test with T. cruzi (Trypanosoma cruzi).

Consider `COc1ccc(-c2ccc3c(=O)ccn(Cc4nc5nc(F)ccc5[nH]4)c3c2)c(Cl)c1` [Compound 2168, 7-(2-chloro-4-methoxyphenyl)-1-((5-fluoro-1H-imidazo[4,5-b]pyridin-2-yl)methyl)quinolin-4(1H)-one], for which the half-inhibitory concentration (IC50) in [1] was under 25 nM; on MetRS (T. brucei) it was under 40 nM; on MetRS (C. parvum), under 40 nM. Moreover, the MIC in [3] is over 1.25 µg/mL; in [4], over 2.5 µg/mL. In addition, the figures for the EC50 in the test on T. brucei (Trypanosoma brucei) and with T. cruzi (Trypanosoma cruzi) were over 200 nM and 6150 nM, respectively.

As to `COc1ccc(-c2cn(Cc3ccccc3)c3c2CN(Cc2nc4nc(Cl)ccc4[nH]2)CC3)c(Cl)c1` [Compound 2176, 2-((1-benzyl-3-(2-chloro-4-methoxyphenyl)-6,7-dihydro-1H-pyrrolo[3,2-c]pyridin-5(4H)-yl)methyl)-5-chloro-1H-imidazo[4,5-b]pyridine], the IC50 in [1] is under 25 nM; on MetRS (T. brucei), under 40 nM; at MetRS (C. parvum) it was 80 nM. For the same compound, the figures for the MIC in test [2] and in test [3] were over 2.5 µg/mL and over 0.5 µg/mL, respectively. Also, the EC50 in the test on T. brucei (Trypanosoma brucei) stood at 40.6 nM; in the test on T. cruzi (Trypanosoma cruzi), 283 nM.

For `COc1ccc(-c2cnc(N3CCN(C(C)=O)CC3)c3nc(Cc4nc5nc(Cl)ccc5[nH]4)cn23)c(Cl)c1` [Compound 2185, 1-{4-[2-({5-chloro-1H-imidazo[4,5-b]pyridin-2-yl}methyl)-5-(2-chloro-4-methoxyphenyl)imidazo[1,2-a]pyrazin-8-yl]piperazin-1-yl}ethan-1-one], the IC50 in test [1] is under 25 nM; on MetRS (T. brucei), under 40 nM; on MetRS (C. parvum) it was under 40 nM. For the same compound, the MIC in test [2] was 1.2 µg/mL (≈ 2.18 µM); in test [3] it was 0.358 µg/mL (≈ 0.649 µM). The EC50 stood at 71.6 nM in the test on T. cruzi (Trypanosoma cruzi), 90.9 nM with T. cruzi and 243 nM in the test with C. parvum (Cryptosporidium parvum).
